This note sets out measurements from patent publication US5342840A, “Cyclopropane derivative” (Ajinomoto Co., Inc., priority 1991, dated 1994).

The subject of assay [1] is HSV-1 (strain KOS). The assay is described as follows: Anti-herpes activity, plaque-reduction assay in Vero cells, HSV-1 (strain KOS). It is filed as cell-based. Conditions: Human alphaherpesvirus 1, 168 h, 7 days at 37° C., read-out: ID50 HSV-1 (concentration of compound causing 50% inhibition of plaque formation). Here is the method:
(§1) Anti-herpes activity was measured in a plaque-reduction assay (Lopez, C. et al., J. Antimicrob. Agents Chemother., 17, 803 (1980). Confluent monolayers of Vero cells in 6-well plates were infected with 100 plaque forming units of either HSV-1 (strain KOS) or HSV-2 (strain 186). The infected monolayers were incubated at 37° C. for 1 hour and then overlaid with maintenance medium containing 1% agarose and various concentrations of test compounds. The monolayers were incubated for a further 7 days at 37° C., after which the cells were fixed and stained, the plaques were counted, and the concentration of compound causing 50% inhibition of plaque formation was calculated.
(Plaques are areas of infected cells; plaque reduction assays count them against a control.)

Assay [2] deals with HSV-2 (strain 186). The assay is described as follows: Anti-herpes activity, plaque-reduction assay in Vero cells, HSV-2 (strain 186). The following applies: Human alphaherpesvirus 2, 168 h; HSV-2 strain 186, Vero cells, 7 days at 37° C.; read-out: ID50 HSV-2 (concentration of compound causing 50% inhibition of plaque formation). It is filed as cell-based. Here is the method:
as §1

In brackets after ≈: the same amount, converted by molar mass.

`Nc1ccn(CC2(CO)CC2CO)c(=O)n1` (stereo not shown): the IC50 in assay [1] was found to be 120 µg/mL (≈ 533 µM).

For the molecule `Nc1nc2c(ncn2COCCO)c(=O)[nH]1` [Acyclovir, reference compound], the results for the IC50 in assay [1] and in assay [2] were 0.57 µg/mL (≈ 2.53 µM) and 0.4 µg/mL (≈ 1.78 µM), respectively.

For `Nc1ncnc2c1ncn2CC1(CO)CC1CO` (stereo not shown), the IC50 in assay [1] amounted to 47 µg/mL (≈ 189 µM).

For the molecule `Nc1nc2c(ncn2C[C@]2(CO)C[C@H]2CO)c(=O)[nH]1` [Example 20, (-)-9-[1'S,2'R-bis(hydroxymethyl)cyclopropan-1'yl]methylguanine], the IC50 in assay [1] came out at 0.023 µg/mL (≈ 0.0867 µM); in assay [2], 0.24 µg/mL (≈ 0.905 µM).

On to `Nc1nc2c(ncn2C[C@]2(CO)C[C@@H]2CO)c(=O)[nH]1` (relative stereo), for which the IC50 in assay [1] was determined as 10.4 µg/mL (≈ 39.2 µM).

Consider `Nc1nc2c(ncn2C[C@]2(CO)C[C@H]2CO)c(=O)[nH]1` (relative stereo), for which the IC50 worked out at 0.046 µg/mL (≈ 0.173 µM) in assay [1] and 0.42 µg/mL (≈ 1.58 µM) in assay [2].

As to `Nc1nc(Cl)c2ncn(CC3(CO)CC3CO)c2n1` (stereo not shown), the IC50 in assay [1] came to 34 µg/mL (≈ 120 µM).
